What is called IC50 is the point on the concentration scale where inhibition reaches its midpoint.

The source of these data is PMC4595849, “Rational Design of Benzylidenehydrazinyl-Substituted Thiazole Derivatives as Potent Inhibitors of Human Dihydroorotate Dehydrogenase with in Vivo Anti-arthritic Activity” (Scientific Reports, 2015).

Values joined by “and” are separate entries in the source; they are usually repeats but may differ in a detail not shown here. Equal entries are not always repeated. Where two headings read alike, the source gives them in different places.

Series [1] deals with T1, hDHODH (Met30-Arg396) (Homo sapiens, UniProt Q02127).
T1 construct: hDHODH (Met30-Arg396) was expressed and purified in the same manner as described in our recently published work; made in house
T1 sequence (Q02127 29-395): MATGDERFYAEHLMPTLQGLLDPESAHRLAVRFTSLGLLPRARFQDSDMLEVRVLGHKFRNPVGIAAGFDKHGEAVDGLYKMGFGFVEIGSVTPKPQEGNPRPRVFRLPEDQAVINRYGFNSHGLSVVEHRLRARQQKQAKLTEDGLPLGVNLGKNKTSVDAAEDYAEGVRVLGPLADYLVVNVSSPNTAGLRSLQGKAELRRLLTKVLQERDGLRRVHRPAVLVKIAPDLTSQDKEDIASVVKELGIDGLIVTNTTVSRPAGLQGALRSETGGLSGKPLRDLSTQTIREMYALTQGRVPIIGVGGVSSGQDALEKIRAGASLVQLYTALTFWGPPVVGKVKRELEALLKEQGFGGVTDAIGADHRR
Description: hDHODH enzyme inhibition, DCIP assay. Type of series: biochemical. Particulars: for LLE: LLE = pIC50 − clogP; for IC50: hDHODH, mean ± SD of three independent experiments, IC50 measured if inhibition rate at 10 μM was larger than 50%; for fold decrease in potency compared with 19: hDHODH IC50 relative to 19. An excerpt: The plasmid coding for human DHODH was kindly provided by Prof. Jon Clardy (Harvard Medical School)[7]. hDHODH (Met30-Arg396) was expressed and purified in the same manner as described in our recently published work[38]. We determined the effect of benzylidenehydrazinyl-substituted thiazole derivatives to inhibit hDHODH by using a DCIP assay method.

Series [2] has as its target T1, hDHODH (Met30-Arg396). On the set-up: method as in PMID 22984987. Particulars: from earlier virtual screen; cited from earlier work.
The test system of series [3] is Wistar rats with collagen-induced arthritis (CIA). Description: collagen-induced arthritis (CIA) rat efficacy study. The format is in vivo. Particulars: i.p. daily for 28 days, versus model group. As to the method: Compound 19 and methotrexate were injected intraperitoneally once per day for 28 days into the Wistar rats with collagen-induced arthritis (CIA). The swelling scores of the arthritis and morphological observations of the rats’ joint tissues were employed to examine the anti-arthritic effect of compound 19 (Fig. 5). With the onset of arthritis, the swelling scores were an indication of the disease states. The maximum score was 8, which is the sum of the scores from both hind paws of each rat and indicates a severe arthritis state. During the experiment, the control rats had normal eating patterns, shiny hair and continuously increasing body weight.
Adult male Wistar rats (120–140 g) were purchased from Shanghai SLRC Laboratory animal company and housed in standard pathogen-free cages. The environment was climate-controlled (20–25 °C, 50–60% relative humidity) with a 12-hour light and 12-hour dark cycle as described previously. Sterilized food and water were provided naturally. All procedures involving animals conform to the Chinese government guidelines for animal experiments, and were conducted with approval of the Institutional Animal Care and Use Committee of East China University of Science & Technology. Bovine type II collagen (CII, Chondrex, USA) was emulsified in the same manner as that conducted previously to get the CIA model. Specifically, 49 rats were randomly assigned into five groups: normal control (solvent, i.p., n = 6), CIA model (solvent, i.p., n = 11), Methotrexate-treated (0.3 mg/kg, i.p., n = 10), compound 19-treated (5 mg/kg, i.p., n = 11) and compound 19-treated (30 mg/kg, i.p., n = 11) groups. Methotrexate, reported to has a therapeutic effect on rheumatoid arthritis, was used as the positive control in this study. The main workflows of this experiment were consistent with that reported recently. During the 28 days of the experiment, compound 19 (5 mg/kg and 30 mg/kg) and Methotrexate (0.3 mg/kg) were injected intraperitoneally once every day. At the same time, the normal control group and model group were administered the same amount of solution. The solvent of 19 was made up of 5% DMSO, 45% saline and 50% PEG400.
In this study, the clinical-mimic arthritis was observed and the severity was assessed by the same criteria as that applied in reference 65: 0, normal, without any swelling; 1, mild swelling; 2, swelling; 3, significant swelling; 4, severe swelling. The maximum score was 8, which was the sum of the scores from both hind paws of each rat. When arthritic signs appeared, the incidence and severity of the arthritis in rats with different treatments were evaluated via arthritis scores recorded every 2 days under blinded conditions. Measurement of body weight was taken every 3 days. All Wistar rats were killed after 28 day’s trails. Pathological detections against the whole knee joints of the rats were conducted using the same method as described previously. Mean ± standard deviation […] was applied to present the data in this study. SPSS was used to evaluate the statistical significance of differences among the groups. P ≤ 0.05 was the threshold to be statistically significant.

Details of series [4]: method as in PMID 16645972. As to conditions: in patients; cited from earlier work.

As to `Cc1ccc(-c2csc(N/N=C/c3ccccc3C(=O)O)n2)cc1` [Compound 29, (E)-2-((2-(4-(p-tolyl)thiazol-2-yl)hydrazono)methyl)benzoic acid], in series [1], the LLE was determined as 2.64 and the half-inhibitory concentration (IC50) was 155 ± 6.8 nM.
For `O=C(O)c1ccccc1/C=N/Nc1nc(-c2ccc(-c3ccccc3)cc2)cs1` [Compound 32, (E)-2-((2-(4-([1,1′-biphenyl]-4-yl)thiazol-2-yl)hydrazono)methyl)benzoic acid], in series [1], the “inhibition of hDHODH (in words)” value is on record as “loss of activity”, the LLE is listed as under −0.04 and the IC50 is over 10000 nM.
For `O=C(O)c1ccccc1/C=N/Nc1nc(-c2ccc3ccccc3c2)cs1` [Compound 31, (E)-2-((2-(4-(naphthalen-2-yl)thiazol-2-yl)hydrazono)methyl)benzoic acid], in that order: “moderate inhibitory activity”, 1.43 and 573 ± 21.6 nM.
In the case of `CC(C)c1ccc(-c2csc(N/N=C/c3ccccc3O)n2)cc1` [Compound 16, (E)-2-((2-(4-(4-isopropylphenyl)thiazol-2-yl)hydrazono)methyl)phenol], in series [1], the LLE is under −1.23 and the 50% inhibitory concentration (IC50) is over 10000 nM.
`O=Cc1ccccc1/C=N/Nc1nc(-c2ccccc2)cs1` [Compound 7] showed an LLE in series [1] of 2.92. Also, the IC50 in series [1] is 365 ± 0.6 nM; in series [2] it was 365 nM.
In series [1], `COc1cccc(-c2csc(N/N=C/c3ccccc3C(=O)O)n2)c1` [Compound 27, (E)-2-((2-(4-(3-methoxyphenyl)thiazol-2-yl)hydrazono)methyl)benzoic acid] came in with an LLE of 3.52 and a 50% inhibitory concentration (IC50) of 175 ± 1.8 nM.
`O=C(O)c1cccc(/C=N/Nc2nc(-c3ccccc3Cl)cs2)c1` [Compound 20, (E)-3-((2-(4-(2-chlorophenyl)thiazol-2-yl)hydrazono)methyl)benzoic acid]: in series [1], the “inhibition of hDHODH (in words)” value is on record as “loss of activity”, the LLE is under 0.34 and the IC50 was over 10000 nM.
In series [1], `Oc1ccccc1/C=N/Nc1nc(-c2ccc(Cl)c(Cl)c2)cs1` [Compound 17, (E)-2-((2-(4-(3,4-dichlorophenyl)thiazol-2-yl)hydrazono)methyl)phenol] registered an LLE of under −1.03 and an IC50 of over 10000 nM.
For `Brc1ccc(-c2csc(N/N=C/c3ccco3)n2)cc1` [Compound 13], in that order: under 0 and over 10000 nM.
As for `Oc1ccccc1/C=N/Nc1nc(-c2ccccc2Cl)cs1` [Compound 18, (E)-2-((2-(4-(2-chlorophenyl)thiazol-2-yl)hydrazono)methyl)phenol], in series [1], the “inhibition of hDHODH (in words)” value is “moderate inhibition”, the LLE was 0.76 and half-maximal inhibition (IC50) required 1390 ± 38 nM.
In series [1], `Oc1c(Cl)cc(Cl)cc1/C=N/Nc1nc(-c2ccc(Cl)cc2Cl)cs1` [Compound 10] yielded an LLE of under −2.53 and a half-maximal inhibitory concentration (IC50) of over 10000 nM.
`NC(=O)c1cccc(-c2csc(N/N=C/c3ccccc3C(=O)O)n2)c1` [Compound 28, (E)-2-((2-(4-(3-carbamoylphenyl)thiazol-2-yl)hydrazono)methyl)benzoic acid]: in series [1], the “inhibition of hDHODH (in words)” value is “sharp decrease in potency”, the LLE was determined as 4.38 and half-maximal inhibition (IC50) was put at 1175 ± 8.5 nM.
Regarding `Oc1ccccc1/C=N/Nc1nc(-c2ccccc2)cs1` [Compound 8], in series [1], the LLE is reported as under 0.17 and the IC50 was over 10000 nM.
In the case of `O=C(O)c1c(F)cccc1/C=N/Nc1nc(-c2ccccc2Cl)cs1` [Compound 24, (E)-2-((2-(4-(2-chlorophenyl)thiazol-2-yl)hydrazono)methyl)-6-fluorobenzoic acid], in series [1], the LLE came out at 2.66, the “fold decrease in potency compared with 19” value (“fold decrease in potency” below) was found to be 7 fold and the 50% inhibitory concentration (IC50) turned out to be 234 ± 6.8 nM.
In series [1], `Brc1ccc(-c2csc(N/N=C/c3ccccc3)n2)cc1` [Compound 12] displayed an LLE of under −0.42 and a half-maximal inhibitory concentration (IC50) of over 10000 nM.
In the case of `CN(Cc1cnc2nc(N)nc(N)c2n1)c1ccc(C(=O)N[C@@H](CCC(=O)O)C(=O)O)cc1` [methotrexate, reference compound], the “influence on body weight” value in series [3] is recorded as “no obvious influence on increase in body weight”.
Turning to `CCOC(=O)c1ccccc1/C=N/Nc1nc(-c2ccccc2Cl)cs1` [Compound 23, (E)-ethyl 2-((2-(4-(2-chlorophenyl)thiazol-2-yl)hydrazono)methyl)benzoate], in series [1], the LLE was 0.75, the “fold decrease in potency” value came out at 58 fold and the IC50 worked out at 1870 ± 30 nM.
On to `Nc1cccc(C(=O)O)c1/C=N/Nc1nc(-c2ccccc2Cl)cs1` [Compound 25, (E)-3-amino-2-((2-(4-(2-chlorophenyl)thiazol-2-yl)hydrazono)methyl)benzoic acid], for which, in series [1], the “inhibition of hDHODH (in words)” value is recorded as “sharp decrease in inhibitory activity”, the LLE is under 1.22 and the IC50 is over 10000 nM.
For the compound `O=C(O)c1ccccc1/C=N/Nc1nc(-c2cc(Cl)ccc2Cl)cs1` [Compound 30, (E)-2-((2-(4-(2,5-dichlorophenyl)thiazol-2-yl)hydrazono)methyl)benzoic acid], in series [1], the “inhibition of hDHODH (in words)” value is given as “IC50 values in the double-digit nanomolar range”; the LLE came to 2.88; the IC50 is 43 nM and 43.1 nM.
In series [1], `C/C(=N\Nc1nc(-c2ccc(Br)cc2)cs1)c1ccccc1O` [Compound 11] displayed an LLE of under −0.81 and an IC50 of over 10000 nM.
Taken in the same sequence, the figures for `Cc1sc(N/N=C/c2cc([N+](=O)[O-])ccc2O)nc1-c1ccccc1` [Compound 14] were under −0.48 and over 10000 nM.
Consider `Cc1sc(N/N=C/c2ccccc2O)nc1-c1ccccc1` [Compound 15, (E)-2-((2-(5-methyl-4-phenylthiazol-2-yl)hydrazono)methyl)phenol], for which, in series [1], the “inhibition of hDHODH (in words)” value was “moderate inhibition”; the LLE was determined as 0.48; the midpoint of inhibition, the IC50, lay at 2437 ± 22.9 nM.
In series [1], `Oc1c(Cl)cc(Cl)cc1/C=N/Nc1nc(-c2ccccc2)cs1` [Compound 9] registered an LLE of under −1.58 and an IC50 of over 10000 nM.
`O=C(O)c1ccccc1/C=N/Nc1nc(-c2ccccc2)cs1` [Compound 26, (E)-2-((2-(4-phenylthiazol-2-yl)hydrazono)methyl)benzoic acid]: in series [1], the “inhibition of hDHODH (in words)” value is recorded as “slight decrease in activity”, the LLE worked out at 3.12 and the IC50 came to 183 ± 3.1 nM.
With `COC(=O)c1ccccc1/C=N/Nc1nc(-c2ccccc2Cl)cs1` [Compound 22, (E)-methyl 2-((2-(4-(2-chlorophenyl)thiazol-2-yl)hydrazono)methyl)benzoate], in series [1], the LLE is given as 1.02, the “fold decrease in potency” value came out at 101 fold and the IC50 is 3270 ± 67.8 nM.
In the case of `O=C(O)c1ccc(/C=N/Nc2nc(-c3ccccc3Cl)cs2)cc1` [Compound 21, (E)-4-((2-(4-(2-chlorophenyl)thiazol-2-yl)hydrazono)methyl)benzoic acid], in series [1], the “inhibition of hDHODH (in words)” value is “loss of activity”, the LLE is reported as under 0.28 and the IC50 is over 10000 nM.
For `Cc1oncc1C(=O)Nc1ccc(C(F)(F)F)cc1` [Leflunomide, leflunomide], the half-life result in series [4] is given as “approximately two”.
